Measured values published in patent US9340590B2 (priority 2011, dated 2016).
Like-named read-outs stand apart in the source and are kept apart here. Positions of bridges follow the written chain, without caps; N, C: chain ends. Residues, ends and D or L forms follow the SMILES beside them.

Columns and labels:
Test in all cases: cell-based
hNav1.3 = hNav1.3 (Homo sapiens, UniProt Q9NY46); conditions: IonWorks Quattro, read-out: IWQ Use Nav1.3
hNav1.5 = hNav1.5 (Homo sapiens, UniProt Q14524); conditions: IonWorks Quattro, read-out: IWQ Use Nav1.5
hNav1.5, sequence (Q14524 whole entry, looked up): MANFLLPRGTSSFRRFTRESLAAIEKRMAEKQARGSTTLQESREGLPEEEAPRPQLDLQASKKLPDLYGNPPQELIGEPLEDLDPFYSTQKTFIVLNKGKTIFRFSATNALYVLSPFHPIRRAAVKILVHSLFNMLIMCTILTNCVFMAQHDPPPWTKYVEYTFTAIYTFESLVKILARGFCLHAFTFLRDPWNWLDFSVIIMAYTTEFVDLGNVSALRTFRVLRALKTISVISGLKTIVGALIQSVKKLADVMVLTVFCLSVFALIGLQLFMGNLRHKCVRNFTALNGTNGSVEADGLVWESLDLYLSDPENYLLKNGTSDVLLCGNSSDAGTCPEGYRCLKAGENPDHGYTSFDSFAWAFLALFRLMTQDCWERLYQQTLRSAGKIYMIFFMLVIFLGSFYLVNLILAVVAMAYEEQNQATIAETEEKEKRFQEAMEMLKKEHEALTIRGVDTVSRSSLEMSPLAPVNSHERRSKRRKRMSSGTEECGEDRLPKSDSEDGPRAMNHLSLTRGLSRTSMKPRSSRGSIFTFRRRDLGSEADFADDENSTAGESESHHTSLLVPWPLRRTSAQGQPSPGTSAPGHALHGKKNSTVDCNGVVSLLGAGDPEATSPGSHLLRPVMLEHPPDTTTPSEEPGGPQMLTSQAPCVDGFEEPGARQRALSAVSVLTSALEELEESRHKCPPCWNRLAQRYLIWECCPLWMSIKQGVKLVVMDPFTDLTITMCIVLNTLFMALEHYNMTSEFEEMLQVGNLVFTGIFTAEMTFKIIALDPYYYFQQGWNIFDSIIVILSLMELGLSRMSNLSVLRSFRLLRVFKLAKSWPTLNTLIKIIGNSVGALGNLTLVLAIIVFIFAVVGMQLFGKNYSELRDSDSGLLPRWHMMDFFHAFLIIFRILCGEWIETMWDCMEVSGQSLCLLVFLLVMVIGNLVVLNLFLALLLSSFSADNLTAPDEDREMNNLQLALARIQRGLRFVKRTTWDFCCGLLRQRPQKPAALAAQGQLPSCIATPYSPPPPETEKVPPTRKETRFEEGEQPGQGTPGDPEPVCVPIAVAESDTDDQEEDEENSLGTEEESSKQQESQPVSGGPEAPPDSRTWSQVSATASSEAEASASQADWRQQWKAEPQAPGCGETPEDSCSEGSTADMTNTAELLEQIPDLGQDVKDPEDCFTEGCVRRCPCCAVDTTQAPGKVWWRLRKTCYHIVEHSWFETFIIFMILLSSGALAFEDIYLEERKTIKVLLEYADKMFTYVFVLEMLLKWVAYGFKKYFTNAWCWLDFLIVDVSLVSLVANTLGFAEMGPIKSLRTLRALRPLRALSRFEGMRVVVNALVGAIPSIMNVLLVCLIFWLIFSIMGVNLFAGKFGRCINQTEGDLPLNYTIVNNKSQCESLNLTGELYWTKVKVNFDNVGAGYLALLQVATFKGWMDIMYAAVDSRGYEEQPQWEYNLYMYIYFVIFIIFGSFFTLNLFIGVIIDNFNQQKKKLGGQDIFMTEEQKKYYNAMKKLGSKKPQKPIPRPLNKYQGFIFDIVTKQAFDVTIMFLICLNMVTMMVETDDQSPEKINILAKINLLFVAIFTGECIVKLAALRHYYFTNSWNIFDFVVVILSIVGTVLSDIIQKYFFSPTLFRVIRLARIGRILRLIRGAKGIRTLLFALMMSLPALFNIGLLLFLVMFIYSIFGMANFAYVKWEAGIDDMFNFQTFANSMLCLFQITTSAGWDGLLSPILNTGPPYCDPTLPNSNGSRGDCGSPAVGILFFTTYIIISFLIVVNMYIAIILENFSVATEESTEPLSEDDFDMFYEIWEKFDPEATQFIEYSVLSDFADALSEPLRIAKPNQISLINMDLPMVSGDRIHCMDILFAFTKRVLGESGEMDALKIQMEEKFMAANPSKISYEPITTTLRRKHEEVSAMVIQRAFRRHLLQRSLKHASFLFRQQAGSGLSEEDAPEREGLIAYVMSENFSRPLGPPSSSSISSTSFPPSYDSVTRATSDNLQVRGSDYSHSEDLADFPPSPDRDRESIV

hNav1.7 = hNav1.7 (Homo sapiens, UniProt Q15858); format: cell-based
hNav1.7, sequence (Q15858 whole entry, looked up): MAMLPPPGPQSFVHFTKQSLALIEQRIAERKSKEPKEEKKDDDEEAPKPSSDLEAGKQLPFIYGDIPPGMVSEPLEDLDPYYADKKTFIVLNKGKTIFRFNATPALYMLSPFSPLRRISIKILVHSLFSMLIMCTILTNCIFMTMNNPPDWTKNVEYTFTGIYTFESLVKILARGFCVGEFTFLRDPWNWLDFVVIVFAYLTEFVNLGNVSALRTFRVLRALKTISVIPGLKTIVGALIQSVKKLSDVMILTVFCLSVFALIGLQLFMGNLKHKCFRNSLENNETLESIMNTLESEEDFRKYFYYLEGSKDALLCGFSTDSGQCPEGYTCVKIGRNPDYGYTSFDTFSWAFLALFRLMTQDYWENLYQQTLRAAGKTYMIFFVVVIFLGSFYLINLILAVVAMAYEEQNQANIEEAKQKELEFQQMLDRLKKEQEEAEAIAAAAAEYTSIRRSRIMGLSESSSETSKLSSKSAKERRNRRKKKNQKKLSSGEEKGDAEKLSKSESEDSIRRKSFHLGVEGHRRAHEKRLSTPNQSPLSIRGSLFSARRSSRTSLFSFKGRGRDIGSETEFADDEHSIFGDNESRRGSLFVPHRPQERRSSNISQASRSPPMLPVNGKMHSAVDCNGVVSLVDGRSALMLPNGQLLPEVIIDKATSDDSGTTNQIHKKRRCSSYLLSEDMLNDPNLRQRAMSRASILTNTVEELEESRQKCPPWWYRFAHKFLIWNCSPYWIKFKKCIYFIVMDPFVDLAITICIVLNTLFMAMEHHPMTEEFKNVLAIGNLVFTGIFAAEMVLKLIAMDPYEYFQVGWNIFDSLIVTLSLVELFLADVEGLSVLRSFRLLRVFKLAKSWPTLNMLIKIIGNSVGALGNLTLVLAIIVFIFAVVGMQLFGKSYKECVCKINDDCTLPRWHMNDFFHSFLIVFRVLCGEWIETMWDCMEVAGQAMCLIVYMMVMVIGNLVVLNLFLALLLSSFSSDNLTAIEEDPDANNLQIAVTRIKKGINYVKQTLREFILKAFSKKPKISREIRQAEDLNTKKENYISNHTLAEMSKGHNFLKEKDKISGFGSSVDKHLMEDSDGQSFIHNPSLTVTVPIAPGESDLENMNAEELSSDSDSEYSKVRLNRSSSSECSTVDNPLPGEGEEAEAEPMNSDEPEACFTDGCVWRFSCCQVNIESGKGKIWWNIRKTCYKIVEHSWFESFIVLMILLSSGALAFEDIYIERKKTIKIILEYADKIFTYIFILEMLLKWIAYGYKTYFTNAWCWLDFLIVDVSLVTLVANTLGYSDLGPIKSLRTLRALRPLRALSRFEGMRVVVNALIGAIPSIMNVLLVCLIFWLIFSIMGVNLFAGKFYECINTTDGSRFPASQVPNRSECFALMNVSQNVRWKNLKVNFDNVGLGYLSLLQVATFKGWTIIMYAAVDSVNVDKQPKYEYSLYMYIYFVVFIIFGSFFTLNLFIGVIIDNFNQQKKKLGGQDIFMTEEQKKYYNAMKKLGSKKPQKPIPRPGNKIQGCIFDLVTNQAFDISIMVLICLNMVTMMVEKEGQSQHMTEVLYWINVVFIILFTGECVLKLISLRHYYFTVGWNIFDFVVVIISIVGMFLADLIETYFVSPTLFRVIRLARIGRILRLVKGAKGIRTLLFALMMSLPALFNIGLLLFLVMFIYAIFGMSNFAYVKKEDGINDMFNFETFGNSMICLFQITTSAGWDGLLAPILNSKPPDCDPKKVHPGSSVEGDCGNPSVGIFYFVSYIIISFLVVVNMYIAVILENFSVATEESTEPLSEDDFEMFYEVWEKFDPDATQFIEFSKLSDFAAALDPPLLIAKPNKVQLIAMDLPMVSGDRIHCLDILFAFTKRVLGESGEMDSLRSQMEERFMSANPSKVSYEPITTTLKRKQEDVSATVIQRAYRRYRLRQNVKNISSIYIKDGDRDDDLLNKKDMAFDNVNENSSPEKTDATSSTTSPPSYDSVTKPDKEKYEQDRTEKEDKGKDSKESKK

[1] = IonWorks Quattro, Use, read-out: IWQ Use Nav1.7

CC[C@H](C)[C@@H]1NC(=O)[C@@H]2CSSC[C@@H]3NC(=O)[C@H](C(C)C)NC(=O)[C@H](CC(C)C)NC(=O)[C@H](CC(N)=O)NC(=O)[C@@H]4CCCN4C(=O)[C@H](CCCNC(=N)N)NC(=O)[C@H](CSSC[C@H](NC(=O)[C@@H](N)CC(=O)O)C(=O)N[C@@H](CC(C)C)C(=O)NCC(=O)N[C@@H](Cc4ccccc4)C(=O)N[C@@H](CCSC)C(=O)N[C@@H](CCCNC(=N)N)C(=O)N[C@@H](CCCCN)C(=O)N2)NC(=O)[C@H](CSSC[C@@H](C(=O)N[C@@H](CCCCN)C(=O)N[C@@H](Cc2ccc(O)cc2)C(=O)N[C@H](C(=O)N[C@@H](Cc2ccccc2)C(=O)N[C@@H](Cc2c[nH]c4ccccc24)C(N)=O)C(C)C)NC(=O)[C@H](Cc2c[nH]c4ccccc24)NC(=O)[C@H](CCCCN)NC(=O)[C@H](Cc2c[nH]cn2)NC(=O)[C@H]([C@@H](C)O)NC(=O)[C@H](CCCNC(=N)N)NC(=O)[C@H](CO)NC3=O)NC(=O)[C@H](CCCCN)NC(=O)[C@H](CC(=O)O)NC(=O)[C@H](CC(N)=O)NC(=O)[C@H](CC(=O)O)NC(=O)[C@@H]2CCCN2C1=O [compound 87]
IC50 (hNav1.3; use-dependent, […]): 70 nM | IC50 (hNav1.5; use-dependent, […]): 7870 nM | IC50 (hNav1.7; IonWorks Quattro, use-dependent, […], read-out: IWQ Use Nav1.7 (μm)): 50 nM

CSCC[C@@H]1NC(=O)[C@H](Cc2ccccc2)NC(=O)CNC(=O)[C@H](CC(C)C)NC(=O)[C@@H](NC(=O)[C@@H](N)CC(=O)O)CSSC[C@@H]2NC(=O)[C@@H]3CSSC[C@@H](C(=O)N[C@@H](CCCCN)C(=O)N[C@@H](Cc4ccc(O)cc4)C(=O)N[C@H](C(=O)N[C@@H](Cc4ccccc4)C(N)=O)C(C)C)NC(=O)[C@H](Cc4c[nH]c5ccccc45)NC(=O)[C@H](CCCCN)NC(=O)[C@H](Cc4cnc[nH]4)NC(=O)[C@H]([C@@H](C)O)NC(=O)[C@H](CCCNC(=N)N)NC(=O)[C@H](CO)NC(=O)[C@H](CSSC[C@H](NC(=O)[C@H](CCCCN)NC(=O)[C@H](CCCNC(=N)N)NC1=O)C(=O)N[C@@H](CC(N)=O)C(=O)N1CCC[C@H]1C(=O)N[C@@H](CC(=O)O)C(=O)N[C@@H](CC(N)=O)C(=O)N[C@@H](CC(=O)O)C(=O)N[C@@H](CCCCN)C(=O)N3)NC(=O)[C@H](C(C)C)NC(=O)[C@H](CC(C)C)NC(=O)[C@H](CC(N)=O)NC(=O)[C@@H]1CCCN1C(=O)[C@H](CCCNC(=N)N)NC2=O [compound 90] (H-DCLGFMRKCNPDNDKCCRPNLVCSRTHKWCKYVF-NH2; disulfide 2-17, 9-23, 16-30)
IC50 (hNav1.3; Use): 190 nM | IC50 (hNav1.5; Use): 14100 nM | IC50 (hNav1.7): 490 nM

CC[C@H](C)[C@@H]1NC(=O)[C@@H]2CSSC[C@@H]3NC(=O)[C@H](C(C)C)NC(=O)[C@H](CC(C)C)NC(=O)[C@H](CC(N)=O)NC(=O)[C@@H]4CCCN4C(=O)[C@H](CCCNC(=N)N)NC(=O)[C@H](CSSC[C@H](NC(=O)[C@@H](N)CC(=O)O)C(=O)N[C@@H](CC(C)C)C(=O)NCC(=O)N[C@@H](Cc4ccccc4)C(=O)N[C@@H](CCSC)C(=O)N[C@@H](CCCNC(=N)N)C(=O)N[C@@H](CCCCN)C(=O)N2)NC(=O)[C@H](CSSC[C@@H](C(=O)N[C@@H](CCCCN)C(=O)N[C@@H](Cc2ccc(O)cc2)C(=O)N[C@H](C(=O)N[C@@H](Cc2ccccc2)C(N)=O)C(C)C)NC(=O)[C@H](Cc2c[nH]c4ccccc24)NC(=O)[C@H](CCCCN)NC(=O)[C@H](Cc2c[nH]cn2)NC(=O)[C@H]([C@@H](C)O)NC(=O)[C@H](CCCNC(=N)N)NC(=O)[C@H](CO)NC3=O)NC(=O)[C@H](CCCCN)NC(=O)[C@H](CC(=O)O)NC(=O)[C@H](CC(N)=O)NC(=O)[C@H](CO)NC(=O)[C@@H]2CCCN2C1=O [compound 91] (H-DCLGFMRKCIPSNDKCCRPNLVCSRTHKWCKYVF-NH2; disulfide 2-17, 9-23, 16-30)
IC50 (hNav1.3; Use): 190 nM | IC50 (hNav1.5; Use): 9580 nM | IC50 (hNav1.7; [1]): 80 nM

CC[C@H](C)[C@@H]1NC(=O)[C@@H]2CSSC[C@@H]3NC(=O)[C@H](C(C)C)NC(=O)[C@H](CC(C)C)NC(=O)[C@H](CC(N)=O)NC(=O)[C@@H]4CCCN4C(=O)[C@H](CCCNC(=N)N)NC(=O)[C@H](CSSC[C@H](NC(=O)[C@@H](N)CC(=O)O)C(=O)N[C@@H](CC(C)C)C(=O)NCC(=O)N[C@@H](Cc4ccccc4)C(=O)N[C@@H](CCSC)C(=O)N[C@@H](CCCNC(=N)N)C(=O)N[C@@H](CCCCN)C(=O)N2)NC(=O)[C@H](CSSC[C@@H](C(=O)N[C@@H](CCCCN)C(=O)N[C@@H](Cc2ccc(O)cc2)C(=O)N[C@H](C(=O)N[C@@H](Cc2ccccc2)C(N)=O)C(C)C)NC(=O)[C@H](Cc2c[nH]c4ccccc24)NC(=O)[C@H](CCCCN)NC(=O)[C@H](Cc2c[nH]cn2)NC(=O)[C@H]([C@@H](C)O)NC(=O)[C@H](CCCNC(=N)N)NC(=O)[C@H](CO)NC3=O)NC(=O)[C@H](CCC(N)=O)NC(=O)[C@H](CC(=O)O)NC(=O)[C@H](CC(N)=O)NC(=O)[C@H](CC(=O)O)NC(=O)[C@@H]2CCCN2C1=O [compound 92] (H-DCLGFMRKCIPDNDQCCRPNLVCSRTHKWCKYVF-NH2; disulfide 2-17, 9-23, 16-30)
IC50 (hNav1.3; Use): 120 nM | IC50 (hNav1.5; Use): 7600 nM | IC50 (hNav1.7; [1]): 130 nM

CC[C@H](C)[C@@H]1NC(=O)[C@@H]2CSSC[C@@H]3NC(=O)[C@H](C(C)C)NC(=O)[C@H](CC(C)C)NC(=O)[C@H](CC(N)=O)NC(=O)[C@@H]4CCCN4C(=O)[C@H](CCCNC(=N)N)NC(=O)[C@H](CSSC[C@H](NC(=O)[C@@H](N)CC(=O)O)C(=O)N[C@@H](CC(C)C)C(=O)NCC(=O)N[C@@H](Cc4ccccc4)C(=O)N[C@@H](CCSC)C(=O)N[C@@H](CCCNC(=N)N)C(=O)N[C@@H](CCCCN)C(=O)N2)NC(=O)[C@H](CSSC[C@@H](C(=O)N[C@@H](CCCCN)C(=O)N[C@@H](Cc2ccc(O)cc2)C(=O)N[C@H](C(=O)N[C@@H](Cc2ccccc2)C(N)=O)C(C)C)NC(=O)[C@H](Cc2c[nH]c4ccccc24)NC(=O)[C@H](CCCCN)NC(=O)[C@H]([C@@H](C)O)NC(=O)[C@H](CCCCN)NC(=O)[C@H](CCCNC(=N)N)NC(=O)[C@H](CO)NC3=O)NC(=O)[C@H](CCCCN)NC(=O)[C@H](CC(=O)O)NC(=O)[C@H](CC(N)=O)NC(=O)[C@H](CC(=O)O)NC(=O)[C@@H]2CCCN2C1=O [compound 94] (H-DCLGFMRKCIPDNDKCCRPNLVCSRKTKWCKYVF-NH2; disulfide 2-17, 9-23, 16-30)
IC50 (hNav1.3; Table 22, use, […]): 50 nM | IC50 (hNav1.5; Table 22, use, […]): 9290 nM | IC50 (hNav1.7; Table 22, IonWorks Quattro, use, […], read-out: IWQ Use Nav1.7): 100 nM

CC[C@H](C)[C@@H]1NC(=O)[C@@H]2CSSC[C@@H]3NC(=O)[C@H](C(C)C)NC(=O)[C@H](CC(C)C)NC(=O)[C@H](CC(N)=O)NC(=O)[C@@H]4CCCN4C(=O)[C@H](CCCNC(=N)N)NC(=O)[C@H](CSSC[C@H](NC(=O)[C@@H](N)CC(=O)O)C(=O)N[C@@H](CC(C)C)C(=O)NCC(=O)N[C@@H](Cc4ccccc4)C(=O)N[C@@H](CCSC)C(=O)N[C@@H](CCCNC(=N)N)C(=O)N[C@@H](CCCCN)C(=O)N2)NC(=O)[C@H](CSSC[C@@H](C(=O)N[C@@H](CCCCN)C(=O)N[C@@H](Cc2ccc(O)cc2)C(=O)N[C@@H](CCC(N)=O)C(=O)N[C@@H](Cc2ccccc2)C(N)=O)NC(=O)[C@H](Cc2c[nH]c4ccccc24)NC(=O)[C@H](CCCCN)NC(=O)[C@H](Cc2c[nH]cn2)NC(=O)[C@H]([C@@H](C)O)NC(=O)[C@H](CCCNC(=N)N)NC(=O)[C@H](CO)NC3=O)NC(=O)[C@H](CCCCN)NC(=O)[C@H](CC(=O)O)NC(=O)[C@H](CC(N)=O)NC(=O)[C@H](CC(=O)O)NC(=O)[C@@H]2CCCN2C1=O [compound 95] (H-DCLGFMRKCIPDNDKCCRPNLVCSRTHKWCKYQF-NH2; disulfide 2-17, 9-23, 16-30)
IC50 (hNav1.3; Table 26, use, […]): 110 nM | IC50 (hNav1.5; Table 26, use, […]): 10600 nM | IC50 (hNav1.7; Table 26, IonWorks Quattro, use, […], read-out: IWQ Use Nav1.7): 120 nM

CC[C@H](C)[C@H](NC(=O)[C@@H](NC(=O)[C@H](Cc1ccc(O)cc1)NC(=O)[C@H](CCCCN)NC(=O)[C@@H]1CSSC[C@@H]2NC(=O)[C@H](CCCCN)NC(=O)[C@H](CC(=O)O)NC(=O)[C@H](CC(N)=O)NC(=O)[C@H](CC(=O)O)NC(=O)[C@@H]3CCCN3C(=O)[C@H]([C@@H](C)CC)NC(=O)[C@@H]3CSSC[C@H](NC(=O)[C@H](C(C)C)NC(=O)[C@H](CC(C)C)NC(=O)[C@H](CC(N)=O)NC(=O)[C@@H]4CCCN4C(=O)[C@H](CCCNC(=N)N)NC(=O)[C@H](CSSC[C@H](NC(=O)[C@@H](N)CC(=O)O)C(=O)N[C@@H](CC(C)C)C(=O)NCC(=O)N[C@@H](Cc4ccccc4)C(=O)N[C@@H](CCSC)C(=O)N[C@@H](CCCNC(=N)N)C(=O)N[C@@H](CCCCN)C(=O)N3)NC2=O)C(=O)N[C@@H](CO)C(=O)N[C@@H](CCCNC(=N)N)C(=O)N[C@@H]([C@@H](C)O)C(=O)N[C@@H](Cc2c[nH]cn2)C(=O)N[C@@H](CCCCN)C(=O)N[C@@H](Cc2c[nH]c3ccccc23)C(=O)N1)C(C)C)C(N)=O [compound 96] (H-DCLGFMRKCIPDNDKCCRPNLVCSRTHKWCKYVI-NH2; disulfide 2-17, 9-23, 16-30)
IC50 (hNav1.3; use-dependent, […]): 280 nM | IC50 (hNav1.5; use-dependent, […]): 10800 nM | IC50 (hNav1.7; IonWorks Quattro, use-dependent, […], read-out: IWQ Use Nav1.7): 280 nM
